Publication PMC5218480 (PLoS ONE, 2017)

Test system: MV-4-11 cells
Test: Gene expression microarray analysis (Affymetrix PrimeView) and GSEA
Assay type: cell-based, human
Parameters: RFU PODN (11730768_x_at) / Fold change /veh PODN (11730768_x_at) / RFU LINC00158 (11744669_a_at) / Fold change /veh LINC00158 (11744669_a_at) / RFU DUSP10 (11751237_a_at) / Fold change /veh DUSP10 (11751237_a_at) / RFU ID3 (11757404_x_at) / Fold change /veh ID3 (11757404_x_at) / RFU PLEKHG5 (11737974_s_at) / Fold change /veh PLEKHG5 (11737974_s_at) / RFU LRRC4B (11730491_at) / Fold change /veh LRRC4B (11730491_at) / RFU GIMAP4 (11747438_a_at) / Fold change /veh GIMAP4 (11747438_a_at) / RFU KRT8 (11758183_x_at) / Fold change /veh KRT8 (11758183_x_at) / RFU CNN1 (11734310_a_at) / Fold change /veh CNN1 (11734310_a_at) / RFU VPS37D (11726825_at) / Fold change /veh VPS37D (11726825_at) / RFU C10orf10 (11716522_x_at) / Fold change /veh C10orf10 (11716522_x_at) / RFU KIR2DL2 /// KIR2DL4 /// KIR2DL5A /// KIR2DL5B /// KIR2DS1 /// KIR2DS2 /// KIR2DS3 /// KIR2DS4 /// KIR3DL3 /// KIR3DL3 /// KIR3DS1 (11738374_at) / Fold change /veh KIR2DL2 /// KIR2DL4 /// KIR2DL5A /// KIR2DL5B /// KIR2DS1 /// KIR2DS2 /// KIR2DS3 /// KIR2DS4 /// KIR3DL3 /// KIR3DL3 /// KIR3DS1 (11738374_at) / RFU C1QL1 (11718748_at) / Fold change /veh C1QL1 (11718748_at) / RFU TMPRSS4 (11747572_a_at) / Fold change /veh TMPRSS4 (11747572_a_at) / RFU HAMP (11756126_x_at) / Fold change /veh HAMP (11756126_x_at) / RFU RNFT2 (11725882_a_at) / Fold change /veh RNFT2 (11725882_a_at) / RFU NR4A2 (11747474_a_at) / Fold change /veh NR4A2 (11747474_a_at) / RFU ABCC12 (11746883_a_at) / Fold change /veh ABCC12 (11746883_a_at) / RFU TMEM136 (11760407_x_at) / Fold change /veh TMEM136 (11760407_x_at) / RFU CLDN22 /// WWC2 (11732394_at) / Fold change /veh CLDN22 /// WWC2 (11732394_at) / RFU HLA-DPB1 (11760878_x_at) / Fold change /veh HLA-DPB1 (11760878_x_at) / RFU SPINT1 (11716480_a_at) / Fold change /veh SPINT1 (11716480_a_at) / RFU GAP43 (11754022_s_at) / Fold change /veh GAP43 (11754022_s_at) / RFU A4GNT (11735810_at) / Fold change /veh A4GNT (11735810_at) / RFU PRB3 (11715151_x_at) / Fold change /veh PRB3 (11715151_x_at) / RFU TUBB4B (11761932_at) / Fold change /veh TUBB4B (11761932_at) / RFU CAPN14 (11732068_a_at) / Fold change /veh CAPN14 (11732068_a_at) / RFU TMCC2 (11721928_a_at) / Fold change /veh TMCC2 (11721928_a_at) / RFU IRGQ (11745062_a_at) / Fold change /veh IRGQ (11745062_a_at) / RFU FAM174B (11720279_a_at) / Fold change /veh FAM174B (11720279_a_at) / RFU TMPRSS4 (11748680_a_at) / Fold change /veh TMPRSS4 (11748680_a_at) / RFU FAM212B (11763350_a_at) / Fold change /veh FAM212B (11763350_a_at) / RFU PLEKHG5 (11743358_a_at) / Fold change /veh PLEKHG5 (11743358_a_at) / RFU ZSCAN30 (11745921_a_at) / Fold change /veh ZSCAN30 (11745921_a_at) / RFU CMKLR1 (11741424_a_at) / Fold change /veh CMKLR1 (11741424_a_at) / RFU LOC101060620 /// MAPK8IP1 (11723275_at) / Fold change /veh LOC101060620 /// MAPK8IP1 (11723275_at) / RFU SPTSSB (11747773_x_at) / Fold change /veh SPTSSB (11747773_x_at) / RFU PRSS12 (11739890_at) / Fold change /veh PRSS12 (11739890_at) / RFU BIN1 (11741810_x_at) / Fold change /veh BIN1 (11741810_x_at) / RFU WNT11 (11732464_a_at) / Fold change /veh WNT11 (11732464_a_at) / RFU C10orf10 (11716521_a_at) / Fold change /veh C10orf10 (11716521_a_at) / RFU C5orf56 (11738089_at) / Fold change /veh C5orf56 (11738089_at) / RFU CYB561 (11721691_x_at) / Fold change /veh CYB561 (11721691_x_at) / RFU ANKRD19P (11752326_a_at) / Fold change /veh ANKRD19P (11752326_a_at) / RFU OR2T12 /// OR2T33 /// OR2T8 (11738714_s_at) / Fold change /veh OR2T12 /// OR2T33 /// OR2T8 (11738714_s_at) / RFU VCAN (11748164_a_at) / Fold change /veh VCAN (11748164_a_at) / RFU JSRP1 (11732532_at) / Fold change /veh JSRP1 (11732532_at) / RFU KRTAP10-11 (11738290_x_at) / Fold change /veh KRTAP10-11 (11738290_x_at) / RFU MYO3A (11730013_a_at) / Fold change /veh MYO3A (11730013_a_at) / RFU EBF3 (11725865_a_at) / Fold change /veh EBF3 (11725865_a_at) / RFU CAMK2N1 (11719241_x_at) / Fold change /veh CAMK2N1 (11719241_x_at) / RFU C5orf56 (11738088_a_at) / Fold change /veh C5orf56 (11738088_a_at) / RFU OLFML3 (11715873_a_at) / Fold change /veh OLFML3 (11715873_a_at) / RFU LOC100653217 /// NTM (11731650_a_at) / Fold change /veh LOC100653217 /// NTM (11731650_a_at) / RFU MAPK11 (11762145_a_at) / Fold change /veh MAPK11 (11762145_a_at) / RFU FIZ1 (11724087_x_at) / Fold change /veh FIZ1 (11724087_x_at) / RFU OASL (11726364_x_at) / Fold change /veh OASL (11726364_x_at) / RFU SOX15 (11748057_x_at) / Fold change /veh SOX15 (11748057_x_at) / RFU CD79A (11719716_a_at) / Fold change /veh CD79A (11719716_a_at) / RFU HIST1H1D (11736915_at) / Fold change /veh HIST1H1D (11736915_at) / RFU CASKIN2 (11723855_a_at) / Fold change /veh CASKIN2 (11723855_a_at) / RFU LOC730098 (11760151_x_at) / Fold change /veh LOC730098 (11760151_x_at) / RFU OR4N2 (11742367_at) / Fold change /veh OR4N2 (11742367_at) / RFU PRRT2 (11749266_a_at) / Fold change /veh PRRT2 (11749266_a_at) / RFU SNX32 (11753110_a_at) / Fold change /veh SNX32 (11753110_a_at) / RFU CDHR5 (11726645_a_at) / Fold change /veh CDHR5 (11726645_a_at) / RFU RCAN1 (11760418_a_at) / Fold change /veh RCAN1 (11760418_a_at) / RFU FAM167A (11723789_a_at) / Fold change /veh FAM167A (11723789_a_at) / RFU FAM26E (11764081_at) / Fold change /veh FAM26E (11764081_at) / RFU ISYNA1 (11749810_s_at) / Fold change /veh ISYNA1 (11749810_s_at) / RFU ACY1 (11761880_at) / Fold change /veh ACY1 (11761880_at) / RFU 11764098_at / Fold change /veh 11764098_at / RFU SAMD14 (11745864_x_at) / Fold change /veh SAMD14 (11745864_x_at) / RFU NPB (11741838_a_at) / Fold change /veh NPB (11741838_a_at) / RFU TMPRSS6 (11731388_a_at) / Fold change /veh TMPRSS6 (11731388_a_at) / RFU KRTAP10-2 (11738614_at) / Fold change /veh KRTAP10-2 (11738614_at) / RFU ARHGAP8 /// PRR5-ARHGAP8 (11727945_x_at) / Fold change /veh ARHGAP8 /// PRR5-ARHGAP8 (11727945_x_at) / RFU KRTAP5-7 /// NADSYN1 (11734609_at) / Fold change /veh KRTAP5-7 /// NADSYN1 (11734609_at) / RFU RASL12 (11751679_a_at) / Fold change /veh RASL12 (11751679_a_at) / RFU CDKN2B (11736163_a_at) / Fold change /veh CDKN2B (11736163_a_at) / RFU PRF1 (11729649_at) / Fold change /veh PRF1 (11729649_at) / RFU, ZNF638 /// ZNF638-IT1 / Fold change vs veh, ZNF638 /// ZNF638-IT1 / RFU, PANK3 / Fold change vs veh, PANK3 / RFU, SH3YL1 / Fold change vs veh, SH3YL1 / RFU, ZEB2 / Fold change vs veh, ZEB2 / RFU, NRIP1 / Fold change vs veh, NRIP1 / RFU, PTTG1IP / Fold change vs veh, PTTG1IP / RFU, CAPN2 / Fold change vs veh, CAPN2 / RFU, MED14 / Fold change vs veh, MED14 / RFU, SNORA58 / Fold change vs veh, SNORA58 / RFU, C1orf63 / Fold change vs veh, C1orf63 / RFU, LRRFIP1 / Fold change vs veh, LRRFIP1 / RFU, NDUFAF7 / Fold change vs veh, NDUFAF7 / RFU, SLC12A2 / Fold change vs veh, SLC12A2 / RFU, IBTK / Fold change vs veh, IBTK / RFU, ESF1 / Fold change vs veh, ESF1 / Fold change vs veh, TMEM50B / RFU, TAOK1 / Fold change vs veh, TAOK1 / RFU, ACBD3 / Fold change vs veh, ACBD3 / RFU, TMA16 / Fold change vs veh, TMA16 / RFU, RWDD3 / Fold change vs veh, RWDD3 / RFU, BCAT1 / Fold change vs veh, BCAT1 / RFU, EDEM3 / Fold change vs veh, EDEM3 / RFU, TMEM33 / Fold change vs veh, TMEM33 / RFU, WDR75 / Fold change vs veh, WDR75 / RFU, AHCTF1 / Fold change vs veh, AHCTF1 / RFU, TFRC / Fold change vs veh, TFRC / RFU, ZDHHC17 / Fold change vs veh, ZDHHC17 / RFU, NOM1 / Fold change vs veh, NOM1 / RFU, ARL8B / Fold change vs veh, ARL8B / RFU, ZBTB11 / Fold change vs veh, ZBTB11 / RFU, TAMM41 / Fold change vs veh, TAMM41 / RFU, KIAA1704 /// LOC100996395 / Fold change vs veh, KIAA1704 /// LOC100996395 / RFU, ING1 / Fold change vs veh, ING1 / RFU, TRMT61B / Fold change vs veh, TRMT61B / RFU, FUBP3 / Fold change vs veh, FUBP3 / RFU, TP53 / Fold change vs veh, TP53 / RFU, TNKS2 / Fold change vs veh, TNKS2 / RFU, ZFP14 / Fold change vs veh, ZFP14 / RFU, ACTR2 / Fold change vs veh, ACTR2 / RFU, PPP3R1 / Fold change vs veh, PPP3R1 / RFU, PIK3R1 / Fold change vs veh, PIK3R1 / RFU, HNRNPA1 / Fold change vs veh, HNRNPA1 / RFU, RNF170 / Fold change vs veh, RNF170 / RFU, ZNF28 / Fold change vs veh, ZNF28 / RFU, RNGTT / Fold change vs veh, RNGTT / RFU, OGT / Fold change vs veh, OGT / RFU, BRD1 / Fold change vs veh, BRD1 / RFU, MARS / Fold change vs veh, MARS / RFU, ZNF655 / Fold change vs veh, ZNF655 / RFU, FAHD1 / Fold change vs veh, FAHD1 / RFU, BDP1 / Fold change vs veh, BDP1 / RFU, LRRCC1 / Fold change vs veh, LRRCC1 / RFU, ARID1A / Fold change vs veh, ARID1A / RFU, ZNF146 / Fold change vs veh, ZNF146 / RFU, ZNF330 / Fold change vs veh, ZNF330 / RFU, GPN3 / Fold change vs veh, GPN3 / RFU, C9orf123 / Fold change vs veh, C9orf123 / RFU, N4BP2L2 / Fold change vs veh, N4BP2L2 / RFU, ARFIP1 / Fold change vs veh, ARFIP1 / RFU, FAM179B / Fold change vs veh, FAM179B / RFU, BCL10 / Fold change vs veh, BCL10 / RFU, UHRF1BP1L / Fold change vs veh, UHRF1BP1L / RFU, BET1 / Fold change vs veh, BET1 / RFU, CNOT2 / Fold change vs veh, CNOT2 / RFU, ZNF268 / Fold change vs veh, ZNF268 / Fold change vs veh, ZNF507 / RFU, DGCR2 / Fold change vs veh, DGCR2 / RFU, WDSUB1 / Fold change vs veh, WDSUB1 / Fold change vs veh, HSP90B1 /// MIR3652 / RFU, ADSS / Fold change vs veh, ADSS / RFU, GK / Fold change vs veh, GK / RFU, ZNF148 / Fold change vs veh, ZNF148 / RFU, TAF9 / Fold change vs veh, TAF9 / RFU, SLC1A5 / Fold change vs veh, SLC1A5 / RFU, SLMO2 / Fold change vs veh, SLMO2 / RFU, ABCC4 / Fold change vs veh, ABCC4 / RFU, LOC101060439 /// RAP1B / Fold change vs veh, LOC101060439 /// RAP1B / RFU, RFX7 / Fold change vs veh, RFX7 / RFU, GTPBP10 / Fold change vs veh, GTPBP10 / RFU, CNEP1R1 / Fold change vs veh, CNEP1R1 / RFU, BIVM-ERCC5 /// ERCC5 / Fold change vs veh, BIVM-ERCC5 /// ERCC5 / RFU, ILF3 / Fold change vs veh, ILF3 / RFU 11762660_at / Fold change /veh 11762660_at / RFU VCAN (11757783_s_at) / Fold change /veh VCAN (11757783_s_at) / RFU DDX43 (11728927_at) / Fold change /veh DDX43 (11728927_at) / RFU KRT8 (11758188_x_at) / Fold change /veh KRT8 (11758188_x_at) / RFU NKD1 (11759106_at) / Fold change /veh NKD1 (11759106_at) / RFU SRD5A1 (11742802_a_at) / Fold change /veh SRD5A1 (11742802_a_at) / RFU TPSAB1 /// TPSB2 (11721975_s_at) / Fold change /veh TPSAB1 /// TPSB2 (11721975_s_at) / RFU GSTM3 (11746129_a_at) / Fold change /veh GSTM3 (11746129_a_at) / RFU IL23R (11737362_x_at) / Fold change /veh IL23R (11737362_x_at) / RFU TMEM51 (11727254_a_at) / Fold change /veh TMEM51 (11727254_a_at) / RFU PIWIL2 (11732686_x_at) / Fold change /veh PIWIL2 (11732686_x_at) / RFU ORM1 (11744905_x_at) / Fold change /veh ORM1 (11744905_x_at) / RFU CCDC152 (11743942_at) / Fold change /veh CCDC152 (11743942_at) / RFU ECM1 (11717891_a_at) / Fold change /veh ECM1 (11717891_a_at) / RFU IL23R (11748794_a_at) / Fold change /veh IL23R (11748794_a_at) / RFU TNFAIP8L3 (11732012_x_at) / Fold change /veh TNFAIP8L3 (11732012_x_at) / RFU MBOAT4 (11741988_at) / Fold change /veh MBOAT4 (11741988_at) / RFU 11764193_at / Fold change /veh 11764193_at / RFU TMEM53 (11763286_at) / Fold change /veh TMEM53 (11763286_at) / RFU MAGEB2 (11727129_at) / Fold change /veh MAGEB2 (11727129_at) / RFU TMEM200A (11744735_a_at) / Fold change /veh TMEM200A (11744735_a_at) / RFU CCDC152 (11751479_a_at) / Fold change /veh CCDC152 (11751479_a_at) / RFU FAM211A (11726209_a_at) / Fold change /veh FAM211A (11726209_a_at) / RFU RGS16 (11746705_a_at) / Fold change /veh RGS16 (11746705_a_at) / RFU VCAN (11755009_s_at) / Fold change /veh VCAN (11755009_s_at) / RFU RHOB (11743442_s_at) / Fold change /veh RHOB (11743442_s_at) / RFU RGS16 (11720943_a_at) / Fold change /veh RGS16 (11720943_a_at) / RFU RGS16 (11720944_at) / Fold change /veh RGS16 (11720944_at) / RFU, VPS4B / Fold change vs veh, VPS4B / RFU, CREB1 / Fold change vs veh, CREB1 / RFU, DNAJC13 / Fold change vs veh, DNAJC13 / RFU, GNAQ / Fold change vs veh, GNAQ / RFU, CDK5R1 / Fold change vs veh, CDK5R1 / RFU, ZRANB3 / Fold change vs veh, ZRANB3 / RFU, CUL4A / Fold change vs veh, CUL4A / RFU, CCNY / Fold change vs veh, CCNY / RFU, UFL1 / Fold change vs veh, UFL1 / RFU, COG3 / Fold change vs veh, COG3 / RFU, DIAPH2 / Fold change vs veh, DIAPH2 / RFU, SKA2 / Fold change vs veh, SKA2 / RFU, AFF3 / Fold change vs veh, AFF3 / RFU, LMF1 / Fold change vs veh, LMF1 / RFU, IPO11 / Fold change vs veh, IPO11 / RFU, DFFB / Fold change vs veh, DFFB / RFU, FOXP1 / Fold change vs veh, FOXP1 / RFU, CARD8 / Fold change vs veh, CARD8 / RFU, STRN3 / Fold change vs veh, STRN3 / RFU, ADK / Fold change vs veh, ADK / RFU, RASSF2 / Fold change vs veh, RASSF2 / RFU, WIPF1 / Fold change vs veh, WIPF1 / RFU, LARP1B / Fold change vs veh, LARP1B / RFU, RASA1 / Fold change vs veh, RASA1 / RFU, RB1 / Fold change vs veh, RB1 / RFU, PPFIA1 / Fold change vs veh, PPFIA1 / RFU, MAT2A / Fold change vs veh, MAT2A / RFU, CCT5 / Fold change vs veh, CCT5 / RFU, WDR92 / Fold change vs veh, WDR92 / RFU, CUX1 / Fold change vs veh, CUX1 / RFU, TTC7A / Fold change vs veh, TTC7A / RFU, TMEM135 / Fold change vs veh, TMEM135 / RFU, DEPTOR / Fold change vs veh, DEPTOR / RFU, CPM / Fold change vs veh, CPM / RFU, DNAJB6 / Fold change vs veh, DNAJB6 / RFU, CACNA2D3 / Fold change vs veh, CACNA2D3 / RFU, DTX4 / Fold change vs veh, DTX4 / RFU, TFCP2 / Fold change vs veh, TFCP2 / RFU, GMCL1 /// GMCL1P1 / Fold change vs veh, GMCL1 /// GMCL1P1 / RFU, AEBP2 / Fold change vs veh, AEBP2 / RFU, SNHG1 /// SNORD22 /// SNORD25 /// SNORD26 /// SNORD27 /// SNORD28 /// SNORD29 /// SNORD31 / Fold change vs veh, SNHG1 /// SNORD22 /// SNORD25 /// SNORD26 /// SNORD27 /// SNORD28 /// SNORD29 /// SNORD31 / Fold change (Aza/veh), C12orf56 (ProbeSet 11735607_a_at) / Fold change (ACY-1035/veh), C12orf56 (ProbeSet 11735607_a_at) / Fold change (Aza/veh), FGFR1OP (ProbeSet 11751329_s_at) / Fold change (ACY-1035/veh), FGFR1OP (ProbeSet 11751329_s_at) / Fold change (Aza/veh), VPS36 (ProbeSet 11739960_a_at) / Fold change (ACY-1035/veh), VPS36 (ProbeSet 11739960_a_at) / RFU SYPL1 (11715823_x_at) / Fold change /veh SYPL1 (11715823_x_at) / RFU IGFBP7 (11715501_s_at) / Fold change /veh IGFBP7 (11715501_s_at) / RFU REEP3 (11722064_at) / Fold change /veh REEP3 (11722064_at) / RFU IGLL1 (11728026_x_at) / Fold change /veh IGLL1 (11728026_x_at): dose or concentration left out as unconfirmed
Conditions: MV-4-11 cells, 48 hours

Nc1ncn([C@@H]2O[C@H](CO)[C@@H](O)[C@H]2O)c(=O)n1 [azacitidine]
RFU FIZ1 (11724087_x_at): 32.14 RFU
